Assay results: ChEMBL document CHEMBL4308841, “Synthesis, in vitro antiproliferative activity, and kinase inhibitory effects of pyrazole-containing diarylureas and diarylamides” (Eur J Med Chem, 2018)

Columns and labels:
Format in all cases: functional
IGROV-1 = assay: Growth inhibition of human IGROV1 cells assessed as cell growth at 10 uM incubated for 48 hrs by sulforhodamine B assay relative to control; conditions: IGROV-1, 48 h, read-out: Activity
U-251 = assay: Growth inhibition of human U251 cells assessed as cell growth at 10 uM incubated for 48 hrs by sulforhodamine B assay relative to control; conditions: U-251, 48 h, read-out: Activity
SK-MEL-5 = assay: Growth inhibition of human SK-MEL-5 cells assessed as cell growth at 10 uM incubated for 48 hrs by sulforhodamine B assay relative to control; conditions: SK-MEL-5, 48 h, read-out: Activity
UACC-62 = assay: Growth inhibition of human UACC62 cells assessed as cell growth at 10 uM incubated for 48 hrs by sulforhodamine B assay relative to control; conditions: UACC-62, 48 h, read-out: Activity
OVCAR-3 = assay: Growth inhibition of human OVCAR3 cells assessed as cell growth at 10 uM incubated for 48 hrs by sulforhodamine B assay relative to control; conditions: OVCAR-3, 48 h, read-out: Activity
A549 = assay: Growth inhibition of human A549/ATCC cells assessed as cell growth at 10 uM incubated for 48 hrs by sulforhodamine B assay relative to control; conditions: A549, 48 h, read-out: Activity
NCI-H226 = assay: Growth inhibition of human NCI-H226 cells assessed as cell growth at 10 uM incubated for 48 hrs by sulforhodamine B assay relative to control; conditions: NCI-H226, 48 h, read-out: Activity
CCRF-CEM = assay: Growth inhibition of human CCRF-CEM cells assessed as cell growth at 10 uM incubated for 48 hrs by sulforhodamine B assay relative to control; conditions: read-out: Activity
SW-620 = assay: Growth inhibition of human SW620 cells assessed as cell growth at 10 uM incubated for 48 hrs by sulforhodamine B assay relative to control; conditions: SW-620, 48 h, read-out: Activity
OVCAR-5 = assay: Growth inhibition of human OVCAR5 cells assessed as cell growth at 10 uM incubated for 48 hrs by sulforhodamine B assay relative to control; conditions: OVCAR-5, 48 h, read-out: Activity
NCI-H23 = assay: Growth inhibition of human NCI-H23 cells assessed as cell growth at 10 uM incubated for 48 hrs by sulforhodamine B assay relative to control; conditions: NCI-H23, 48 h, read-out: Activity
A498 = assay: Growth inhibition of human A498 cells assessed as cell growth at 10 uM incubated for 48 hrs by sulforhodamine B assay relative to control; conditions: A498, 48 h, read-out: Activity
DU-145 = assay: Growth inhibition of human DU145 cells assessed as cell growth at 10 uM incubated for 48 hrs by sulforhodamine B assay relative to control; conditions: DU-145, 48 h, read-out: Activity
PC-3 = assay: Growth inhibition of human PC3 cells assessed as cell growth at 10 uM incubated for 48 hrs by sulforhodamine B assay relative to control; conditions: PC-3, 48 h, read-out: Activity
SNB-75 = assay: Growth inhibition of human SNB75 cells assessed as cell growth at 10 uM incubated for 48 hrs by sulforhodamine B assay relative to control; conditions: SNB-75, 48 h, read-out: Activity
MOLT-4 = assay: Growth inhibition of human MOLT4 cells assessed as cell growth at 10 uM incubated for 48 hrs by sulforhodamine B assay relative to control; conditions: MOLT-4, 48 h, read-out: Activity
MDA-MB-231 = assay: Growth inhibition of human MDA-MB-231 cells assessed as cell growth at 10 uM incubated for 48 hrs by sulforhodamine B assay relative to control; conditions: MDA-MB-231, 48 h, read-out: Activity
BT-549 = assay: Growth inhibition of human BT549 cells assessed as cell growth at 10 uM incubated for 48 hrs by sulforhodamine B assay relative to control; conditions: BT-549, 48 h, read-out: Activity
RXF 393 = assay: Growth inhibition of human RXF393 cells assessed as cell growth at 10 uM incubated for 48 hrs by sulforhodamine B assay relative to control; conditions: RXF 393, 48 h, read-out: Activity
SF-539 = assay: Growth inhibition of human SF539 cells assessed as cell growth at 10 uM incubated for 48 hrs by sulforhodamine B assay relative to control; conditions: SF-539, 48 h, read-out: Activity
COLO 205 = assay: Growth inhibition of human COLO205 cells assessed as cell growth at 10 uM incubated for 48 hrs by sulforhodamine B assay relative to control; conditions: COLO 205, 48 h, read-out: Activity
SN12C = assay: Growth inhibition of human SN12C cells assessed as cell growth at 10 uM incubated for 48 hrs by sulforhodamine B assay relative to control; conditions: read-out: Activity
NCI-H460 = assay: Growth inhibition of human NCI-H460 cells assessed as cell growth at 10 uM incubated for 48 hrs by sulforhodamine B assay relative to control; conditions: NCI-H460, 48 h, read-out: Activity
SK-MEL-28 = assay: Growth inhibition of human SK-MEL-28 cells assessed as cell growth at 10 uM incubated for 48 hrs by sulforhodamine B assay relative to control; conditions: SK-MEL-28, 48 h, read-out: Activity
MCF7 = assay: Growth inhibition of human MCF7 cells assessed as cell growth at 10 uM incubated for 48 hrs by sulforhodamine B assay relative to control; conditions: MCF7, 48 h, read-out: Activity
UO-31 = assay: Growth inhibition of human UO31 cells assessed as cell growth at 10 uM incubated for 48 hrs by sulforhodamine B assay relative to control; conditions: UO-31, 48 h, read-out: Activity
ACHN = assay: Growth inhibition of human ACHN cells assessed as cell growth at 10 uM incubated for 48 hrs by sulforhodamine B assay relative to control; conditions: read-out: Activity
T47D = assay: Growth inhibition of human T47D cells assessed as cell growth at 10 uM incubated for 48 hrs by sulforhodamine B assay relative to control; conditions: read-out: Activity
KM12 = assay: Growth inhibition of human KM12 cells assessed as cell growth at 10 uM incubated for 48 hrs by sulforhodamine B assay relative to control; conditions: KM12, 48 h, read-out: Activity
HCT-116 = assay: Growth inhibition of human HCT116 cells assessed as cell growth at 10 uM incubated for 48 hrs by sulforhodamine B assay relative to control; conditions: HCT-116, 48 h, read-out: Activity
NCI-H322M = assay: Growth inhibition of human NCI-H322M cells assessed as cell growth at 10 uM incubated for 48 hrs by sulforhodamine B assay relative to control; conditions: read-out: Activity
786-0 = assay: Growth inhibition of human 786-0 cells assessed as cell growth at 10 uM incubated for 48 hrs by sulforhodamine B assay relative to control; conditions: 786-0, 48 h, read-out: Activity
CAKI-1 = assay: Growth inhibition of human Caki1 cells assessed as cell growth at 10 uM incubated for 48 hrs by sulforhodamine B assay relative to control; conditions: CAKI-1, 48 h, read-out: Activity

Row | SMILES | growth at 10 µM (IGROV-1) [%] | growth at 10 µM (U-251) [%] | growth at 10 µM (SK-MEL-5) [%] | growth at 10 µM (UACC-62) [%] | growth at 10 µM (OVCAR-3) [%] | growth at 10 µM (A549) [%] | growth at 10 µM (NCI-H226) [%] | growth at 10 µM (CCRF-CEM) [%] | growth at 10 µM (SW-620) [%] | growth at 10 µM (OVCAR-5) [%] | growth at 10 µM (NCI-H23) [%] | growth at 10 µM (A498) [%] | growth at 10 µM (DU-145) [%] | growth at 10 µM (PC-3) [%] | growth at 10 µM (SNB-75) [%] | growth at 10 µM (MOLT-4) [%] | growth at 10 µM (MDA-MB-231) [%] | growth at 10 µM (BT-549) [%] | growth at 10 µM (RXF 393) [%] | growth at 10 µM (SF-539) [%] | further results
1 | COc1cc(Cl)cc(-c2nn(-c3cccc(NC(=O)Nc4ccc(Cl)c(C(F)(F)F)c4)c3)cc2-c2ccncc2)c1 | 30.2 | -48.3 | -71.2 | 6.62 | -22.6 | 5.2 | -2.82 | 1.88 | 12.7 | 19.2 | 0.3 | -9.18 | 15.2 | -13 | 14.5 | -9.68 | -30.8 | 9.81 | -29.9 | -1.17 | growth at 10 µM (COLO 205): -48.3%; growth at 10 µM (SN12C): 13.8%; growth at 10 µM (NCI-H460): 2.76%; growth at 10 µM (SK-MEL-28): 23.6%; growth at 10 µM (MCF7): 2.57%; growth at 10 µM (UO-31): 11.1%; growth at 10 µM (ACHN): 8.78%; growth at 10 µM (T47D): 8.1%; growth at 10 µM (KM12): 9.1%; growth at 10 µM (HCT-116): 3.39%; growth at 10 µM (NCI-H322M): 18.7%; growth at 10 µM (786-0): -4.76%; growth at 10 µM (CAKI-1): 9.38%
2 | COc1cc(Cl)cc(-c2nn(-c3cccc(NC(=O)c4ccc(Cl)c(Cl)c4)c3)cc2-c2ccncc2)c1 | 71.6 | 64.1 | 78.5 | 75.4 | 53.4 | 59.7 | 66.2 | 59.2 | 84.2 | 79.2 | 75.2 | -0.94 | 88.5 | 34 | 50.6 | 54.9 | 33.9 | 85.2 | 59.2 | 74.5 | growth at 10 µM (COLO 205): 81.5%; growth at 10 µM (SN12C): 69.6%; growth at 10 µM (NCI-H460): 65.2%; growth at 10 µM (SK-MEL-28): 87.8%; growth at 10 µM (MCF7): 57.7%; growth at 10 µM (UO-31): 43.5%; growth at 10 µM (ACHN): 63.9%; growth at 10 µM (T47D): 63.2%; growth at 10 µM (KM12): 62.3%; growth at 10 µM (HCT-116): 44.1%; growth at 10 µM (NCI-H322M): 84.5%; growth at 10 µM (786-0): 74.1%; growth at 10 µM (CAKI-1): 63.6%
3 | COc1cc(Cl)cc(-c2nn(-c3cccc(NC(=O)c4ccc(N5CCOCC5)c(C(F)(F)F)c4)c3)cc2-c2ccncc2)c1 | 96.5 | 32.3 | 71.5 | 67.8 | 69.4 | 45.5 | 64.2 | 31.7 | 69.2 | 78.4 | 79 | 31.4 | 93.3 | 29.1 | 34.9 | 38.3 | 11.4 | 73 | 12.4 | 52.1 | growth at 10 µM (COLO 205): 52.7%; growth at 10 µM (SN12C): 79.8%; growth at 10 µM (NCI-H460): 29.3%; growth at 10 µM (SK-MEL-28): 53.2%; growth at 10 µM (MCF7): 45.3%; growth at 10 µM (UO-31): 40.7%; growth at 10 µM (ACHN): 50.1%; growth at 10 µM (T47D): 49.2%; growth at 10 µM (KM12): 38.4%; growth at 10 µM (HCT-116): 47.8%; growth at 10 µM (NCI-H322M): 89.6%; growth at 10 µM (786-0): 43.1%; growth at 10 µM (CAKI-1): 46.7%
4 | O=C(Nc1cccc(-n2cc(-c3ccncc3)c(-c3cc(O)cc(Cl)c3)n2)c1)Nc1ccc(Cl)c(Cl)c1 | 26 | -56.5 | -53 | -61.8 | -47.4 | 3.96 | 14.5 | 4.11 | -33.8 | -2.26 | -20.4 | -2.98 | -15.1 | -1.66 | 4.08 | -27.1 | -38.1 | 0.54 | -70.3 | -29 | growth at 10 µM (COLO 205): 22.4%; growth at 10 µM (SN12C): 14.9%; growth at 10 µM (NCI-H460): 0.21%; growth at 10 µM (SK-MEL-28): -50.9%; growth at 10 µM (MCF7): 2.74%; growth at 10 µM (UO-31): -41.2%; growth at 10 µM (ACHN): 6.85%; growth at 10 µM (T47D): -5.53%; growth at 10 µM (KM12): 2.26%; growth at 10 µM (HCT-116): -57.3%; growth at 10 µM (NCI-H322M): 19.5%; growth at 10 µM (786-0): -72.1%; growth at 10 µM (CAKI-1): 5.31%
5 | COc1cc(Cl)cc(-c2nn(-c3cccc(NC(=O)c4cccc(C(F)(F)F)c4)c3)cc2-c2ccncc2)c1 | 80.7 | 49.2 | 70.7 | 74.5 | 52.3 | 39.1 | 69 | 42.3 | 77 | 84 | 55.6 | 21.2 | 83.8 | 23.1 | 53.9 | 29 | 21.4 | 89.5 | 40.5 | 64.2 | growth at 10 µM (COLO 205): 68.5%; growth at 10 µM (SN12C): 65.8%; growth at 10 µM (NCI-H460): 41.1%; growth at 10 µM (SK-MEL-28): 70.3%; growth at 10 µM (MCF7): 39.4%; growth at 10 µM (UO-31): 37.2%; growth at 10 µM (ACHN): 48.1%; growth at 10 µM (T47D): 36.6%; growth at 10 µM (KM12): 43.7%; growth at 10 µM (HCT-116): 34.1%; growth at 10 µM (NCI-H322M): 78.6%; growth at 10 µM (786-0): 66.6%; growth at 10 µM (CAKI-1): 54%
